Measurements: patent US12527806B2, “Composition for preventing or treating diabetes mellitus” (SEOUL NATIONAL UNIVERSITY R&DB FOUNDATION, priority 2020, dated 2026)

Test system: MIN-6 cells
Experiment: Cytotoxicity: cell viability of MIN-6 cells by AOPI staining and cell counter
Conditions: 24 hours

SMILES	cytotoxicity (cell viability) (0.5 mM to 40 mM of each factor)	cell viability (40 μM)	cytotoxicity (cell viability) (up to 20 μM)
N[C@H]1C(O)O[C@H](CO)[C@@H](O)[C@@H]1O (stereo partly shown) [glucosamine]	did not show cytotoxicity	–	–
CN(CC(=O)N(Cc1ccc(C2CCCCC2)cc1)c1ccc(C(=O)O)c(O)c1)S(=O)(=O)c1c(F)c(F)c(F)c(F)c1F [BP-1-102]	–	about 59%	no cytotoxicity was shown
NC(=O)c1cccnc1 [nicotinamide]	did not show cytotoxicity	–	–
